Measured values taken from patent US4404230A, “4-Hydroxy-1,2-Benzisothiazol-3(2H)-one-1,1-dioxides and salts thereof” (priority 1980, dated 1983).

Key:
taste testers [1] = experiment: Determination of the taste quality; format: in vivo
Experimental: The tests were performed in analogy to the method of DuBois, G. A. Crosby, R. A. Stephanson and R. E. Wingard Jr., J. Agric. […] The test compounds were used as aqueous solutions at a concentration which corresponds to an about 5% saccharose solution. As comparison compound saccharose was used. The tests were carried out under identical conditions. Only the characterization of the taste was evaluated, because the intensity was already determined in the preceding experiments. The following criteria were determined by each tester: Percentage sweet to percentage bitter to percentage another taste quality. Furthermore, the presence or absence of an after taste of the individual test compounds was determined. Each substance was tested twice with regard to five different determinations.

taste testers [2] = experiment: Determination of the threshold concentration (sweet taste); format: in vivo
Experimental: Aqueous solutions having concentrations of 1:12,500, 1:25,000, 1:50,000, and 1:100,000 were prepared of test compounds A, B and C and of comparison compounds X, Y and Z, and each was evaluated at 5 taste testers according to the following scoring system: Very sweet (=3 points), medium sweet (=2 points), weakly sweet (=1 point), and not sweet (=0 point). The tests were carried out as described by H. G. Schutz and F. J. Pilgrim in Food Research 22, 206 (1957). The dilution perceptible as sweet was defined as having the concentration at which the average value of the evaluation points reached 1.0 or more.

taste testers [3] = experiment: Determination of the relative sweetening power in comparison to saccharose; format: in vivo; conditions: compared with 3% aqueous solution of saccharose
Excerpt: The relative sweetening power (often also defined as degree of sweetness) of sweetening agents in comparison with saccharose (cane sugar) varies considerably with concentration. […] Therefore, for the determination of the relative sweetening power of the test compounds a 3% aqueous solution of saccharose was always used for comparison.

taste testers [4] = conditions: prior knowledge; cited from earlier work
[5] = prior knowledge; cited from earlier work
taste testers [6] = conditions: prior knowledge; cited from earlier work; remark: listed apart in the source
[7] = Batzinger et al., Science 198, 944 (1977); cited from earlier work
thrombocyte aggregation = experiment: Effect on thrombocyte aggregation induced by collagen; format: cell-based; conditions: read-out: Change in % max. aggregation rate
Experimental: The thrombocyte aggregation was measured according to Born and Cross [J. Physiol. 170, 397 (1964)] in platelet-rich plasma obtained by centrifuging citrate blood. The change in the maximum aggregation rate in % compared with a control, and the percent change in the "optical density" were the measured parameters. The aggregation was induced by collagen.

SMILES | After taste (taste testers [1]; 1:20, 10 determinations) | Percentage bitter (taste testers [1]; 1:20, 10 determinations) [%] | Percentage other taste (taste testers [1]; 1:20, 10 determinations) [%] | Percentage sweet (taste testers [1]; 1:20, 10 determinations) [%] | Average value of evaluation points (taste testers [2]; concentration 1:25000) [points] | Average value of evaluation points (taste testers [2]; concentration 1:50000) [points] | Average value of evaluation points (taste testers [2]; concentration 1:100000) [points] | Relative sweetening power (Saccharose = 1) (taste testers [3]) | purity of the taste (taste testers [1]) | After taste (taste testers [1]; 1:10000, 10 determinations) | Percentage bitter (taste testers [1]; 1:10000, 10 determinations) [%] | Percentage other taste (taste testers [1]; 1:10000, 10 determinations) [%] | Percentage sweet (taste testers [1]; 1:10000, 10 determinations) [%] | Average value of evaluation points (taste testers [2]; concentration 1:12500) [points] | sweetening power compared with saccharose (in words) (taste testers [4]) | toxicological tests at higher dosages [5] | taste profile compared with saccharose (taste testers [1]) | after taste and concurrent taste (taste testers [6]) | mutagenic effect [7] | change in maximum aggregation rate vs control at 100 µM (thrombocyte aggregation) [%]
OC[C@H]1O[C@@](CO)(O[C@H]2O[C@H](CO)[C@@H](O)[C@H](O)[C@H]2O)[C@@H](O)[C@@H]1O [Saccharose, saccharose, reference compound] | 4 | 0 | 2 | 98 | – | – | – | – | – | – | – | – | – | – | – | – | – | – | – | –
O=C1NS(=O)(=O)c2cccc(O)c21 [Substance A, 4-hydroxy-1,2-benzisothiazol-3(2H)-one-1,1-dioxide] | – | – | – | – | 2.4 | 1.0 | 0.2 | 210 | 94-96% | 3 | 2 | 4 | 94 | – | – | – | – | – | – | –
O=C1NS(=O)(=O)c2cc(O)cc(O)c21 [Substance C, 4,6-Dihydroxy-1,2-benzoisothiazol-3(2H)-one-1,1-dioxide] | – | – | – | – | 1.8 | 1.0 | 0.0 | 180 | 86% | 8 | 3 | 11 | 86 | – | – | – | – | – | – | –
O=S(=O)(O)NC1CCCCC1 [X, cyclamate, reference compound] | – | – | – | – | 0.2 | 0.0 | – | 45 | – | – | – | – | – | 0.6 | much better than that of the saccharose | not without objection | – | – | – | –
O=C1NS(=O)(=O)c2ccccc21 [Y, saccharine, reference compound] | – | – | – | – | 2.4 | 1.2 | 0.4 | – | – | 80 | 21 | 7 | 72 | – | much better than that of the saccharose | – | not even approached | metallic, bitter after taste and the bitter concurrent taste | shows a mutagenic effect | –
O=C1NS(=O)(=O)c2cc(O)ccc21 [Z, 6-hydroxy-1,2-benzisothiazol-3(2H)-one-1,1-dioxide, reference compound] | – | – | – | – | 1.4 | 0.6 | 0.0 | 140 | – | 29 | 7 | 12 | 81 | – | – | – | not even approached | – | – | –
O=C1NS(=O)(=O)c2cccc(O)c21.[Na] [sodium salt] | – | – | – | – | – | – | – | – | – | – | – | – | – | – | – | – | – | – | – | 0
